From patent US20250073209A1, “COVALENT TARGETING OF RhoA FOR CANCER THERAPY” (The University of Hong Kong, priority 2023, published 2025)
pIC50: −log10 of the molar value.

What was measured:
orthotopic SL4 CRC = assay: Immunocompetent orthotopic mouse CRC model (SL4 intracecal); assay type: in vivo
From the text: FIG. 13B is a graph showing the weight of tumors from the mice treated with vehicle (n=7) or CL16 (n=8) at the end point of the investigation of CL16 treatment. FIGS. 13C-13H are graphs showing the scores of the immunohistochemistry staining of CD3 (FIG. 13C), CD4 (FIG. 13D), CD8 (FIG. 13E), Ki67 (FIG. 13F), cleaved caspase-3 (FIG. 13G) and VEGFR2 (FIG. 13H) on tumor tissues from the vehicle- or CL16-treated mice, FIG. 131 is a graph showing the changes in the body weight of mice with orthotopic SL4 CRC model treated with solvent vehicle or CL16 through i.p. injection. Antitumor effects of CL16 in an immunocompetent, orthotopic mouse CRC model, which was established by the inoculation of mouse CRC cells, SL4, intracecally were examined (FIG. 20). […] Immunohistochemistry staining of CD3, CD4, CD8, Ki67 was conducted, with cleaved caspase-3 and VEGFR2 on tumor tissues from the vehicle- or CL16-treated mice. […] To the best of our knowledge, this is the first reported study showing an increase in immunity through RhoA inhibition in CRC cells by a small molecule compound.

Rac1 [1] = molecular target: T1, Rac1 (Homo sapiens, UniProt P63000); assay: Rac1-GTP PAK-PBD pull-down in HT29 cells; assay type: cell-based; parameters: endogenous in cells; host or cells: HT29; conditions: HT29, complete medium 24 h
From the text: The procedure is similar to that for RhoA-GTP assay, except that Rac1-GTP and Cdc42-GTP in CRC cells were first enriched by Rac1 Pull-Down Activation Assay Biochem Kit (Cytoskeleton #BK035) instead of using the RhoA kit. The enriched Rac1-GTP and Cdc42-GTP were then immunoblotted by Rac1/2/3 antibody (CST #2465) and Cdc42 antibody (CST #2462) respectively.
GTP loading onto RhoA is critical for the protein activation and mediating downstream signals. In view of the inhibitions of GDP-to-GTP exchange of RhoA by CL16 in vitro as discussed above, effects of CL16 on RhoA biology in colorectal cancer cells were examined. In the serum starvation-re-stimulation experiment, HCT116 cells were grown in serum-free medium with CL16, Rhosin or solvent control for 24 h, followed by stimulation with 10% FBS for 10 min. The cells were then lysed and the RhoA activity was assayed by the level of RhoA-GTP, which is the active form of RhoA. […] HT29 cells were incubated with solvent vehicle, CL16 or Rhosin in complete medium for 24 h. The cells were then washed, lysed and subjected to rhotekin pull-down for blotting RhoA-GTP, or PAK-PBD pull-down for blotting Rac1-GTP and Cdc42-GTP. Confocal fluorescence images from HCT116 and HT29 cells expressing FRET RhoA-biosensor in the serum starvation-restimulation experiment were taken.

Rac1 [2] = molecular target: T1, Rac1; assay: Gel-based competitive ABPP, second screening on Rac1; assay type: binding
Experimental: (§1) Recombinant human RhoA (0.1 μg; ab101594) was pretreated with cysteine-reactive compounds or DMSO for 1 hour at room temperature, followed by incubation with iodoacetamide-rhodamine (IA-Rh; 1 μM) for 1 hour at room temperature. The reaction was then quenched by boiling in sampling buffer. Samples were subjected to SDS-PAGE to separate proteins bands. In-gel fluorescence intensity was measured with a Chemidoc using setting for Rhodamine. Gel was subsequently stained with silver stain (Pierce) for visualization of protein content and covalent modification. Band intensity was quantified using ImageJ.
(§2) CL16 was identified for its strong and specific binding with RhoA in covalent ligand screening experiment by ABPP. ABPP is known as a powerful platform for covalent ligand screening, particularly for the identification of lead compounds targeting new hotspots for therapy. Competitive gel-based activity-based protein profiling (ABPP) experiment was performed on purified RhoA protein for screening its interactions with a library of cysteine-reactive covalent ligands with acrylamide or chloroacetamide warheads. RhoA protein for the first screening and on Rac1 and Cdc42 for the second screening to identify lead compounds with specific binding onto RhoA Cys16. […] The reaction mixture was then resolved by SDS-PAGE and in-gel fluorescence was imaged (FIG. 1A). […]

Cdc42 = Cdc42 (Homo sapiens, UniProt P60953); assay: Gel-based competitive ABPP, second screening on Cdc42; assay type: binding
Experimental: as §1, §2

SW620 spheroid = assay: Spheroid formation assay, SW620; assay type: cell-based, human
Experimental: FIGS. 5A-5B are graphs showing the anticancer effects of CL16 in HT29 (FIG. 5A) and SW620 (FIG. 5B) spheroids. HT29 spheroid or SW620 spheroid were treated with CL16 at the indicated concentrations for 10 days. The spheroids were then imaged by microscope using 10× objective and the size was determined by ImageJ.
5,000 cells of HT29 and SW620 cells were inoculated in serum-free DMEM/F12 medium with 20 ng/mL […] growth factor (EGF) in 96-well round-bottom low-affinity plate (Nunc). Medium was supplemented with CL16 or Rhosin when spheroid has formed an opaque core. Morphology was recorded under a light microscope with 10× objective.
To further investigate the anticancer effects of CL16, HT29 and SW620 cells were inoculated as spheroids in low-affinity plate with 20 ng/mL EGF, and incubated with different concentrations of CL16 or Rhosin.

Chain of Cdc42 (P60953 whole entry): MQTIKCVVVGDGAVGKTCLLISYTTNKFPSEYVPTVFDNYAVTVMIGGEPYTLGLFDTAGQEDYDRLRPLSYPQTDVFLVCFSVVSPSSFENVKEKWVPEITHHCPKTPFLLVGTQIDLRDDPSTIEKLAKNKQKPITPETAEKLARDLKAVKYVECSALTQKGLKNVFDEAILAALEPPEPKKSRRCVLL

Rac1 activity (Rac1-GTP) (Rac1 [1]): no significant changes
binding with Rac1 (Rac1 [2]): no observable binding
binding with Cdc42 (Cdc42): no observable binding
Compound: O=C(CCl)N1N=C(c2cc3ccccc3o2)CC1c1ccco1 (stereo not drawn) [CL16]
body weight (orthotopic SL4 CRC; i.p. injection): no significant changes in the body weight
tumor weight (orthotopic SL4 CRC; i.p. injection, end point): significantly lower tumor weight
organ damage in kidney tissue (orthotopic SL4 CRC; treated mice): no organ damages in the kidney tissue
Ki67 in tumor tissues (orthotopic SL4 CRC; treated vs vehicle): decrease in Ki67
cleaved caspase-3 immunohistochemistry in tumor tissues (orthotopic SL4 CRC; treated vs vehicle): elevated level
CD3 immunohistochemistry of tumor tissues (orthotopic SL4 CRC; tumor tissues): increases
CD4 immunohistochemistry of tumor tissues (orthotopic SL4 CRC; tumor tissues): increases
CD8 immunohistochemistry of tumor tissues (orthotopic SL4 CRC; tumor tissues): increases
VEGFR2 level, immunohistochemistry (orthotopic SL4 CRC; tumor tissues): decrease in VEGFR2 level
tumor metastasis to liver (orthotopic SL4 CRC; vs control mice): prohibited the tumor metastasis
growth of SW620 spheroids (SW620 spheroid; 20 ng/mL EGF, low-affinity plate): significant inhibitions in the growth
pIC50 (SW620 spheroid; Homo sapiens, SW-620, 240 h, 10 days, read-out: cytotoxic IC50 in SW620 spheroids): 5.39
